For orientation: Emax means the maximal effect, on the per cent scale that the assay sets.

The values below come from patent US9926297B2, “Bicyclic AZA compounds as muscarinic M1 receptor and/or M4 receptor agonists” (Heptares Therapeutics Limited, priority 2014, dated 2018).

The structures appear in SMILES notation. Like-named read-outs stand apart in the source and are kept apart here.

The target of test [1] is T1, human muscarinic M1 receptor (Homo sapiens, UniProt P11229).
T1 sequence (P11229 1-460): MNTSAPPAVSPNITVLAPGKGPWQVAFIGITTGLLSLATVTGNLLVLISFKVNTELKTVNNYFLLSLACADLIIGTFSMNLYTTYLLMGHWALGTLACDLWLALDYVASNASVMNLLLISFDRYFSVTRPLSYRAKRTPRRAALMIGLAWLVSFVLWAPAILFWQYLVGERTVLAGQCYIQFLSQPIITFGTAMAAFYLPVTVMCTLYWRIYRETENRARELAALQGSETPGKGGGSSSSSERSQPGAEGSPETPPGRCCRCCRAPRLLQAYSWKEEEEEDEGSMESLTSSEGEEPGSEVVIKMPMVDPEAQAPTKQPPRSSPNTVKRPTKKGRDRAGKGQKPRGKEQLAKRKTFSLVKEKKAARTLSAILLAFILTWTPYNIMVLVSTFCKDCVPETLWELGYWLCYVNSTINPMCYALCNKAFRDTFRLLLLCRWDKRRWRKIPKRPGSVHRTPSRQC
Description: Alphascreen Surefire phospho-ERK1/2 functional assay, M1. The conditions noted are these: for EC50: CHO cells stably expressing human M1, phospho-ERK1/2, * = variable results, read-out: pEC50 M1 (converted); for Emax: CHO. The format is cell-based. For orientation: In Alpha technology, singlet oxygen from a donor bead excites a nearby acceptor bead.

Test [2] addresses T2, human muscarinic M4 receptor (Homo sapiens, UniProt P08173).
T2 construct: expressed in transfected cells
T2 sequence (P08173 1-479): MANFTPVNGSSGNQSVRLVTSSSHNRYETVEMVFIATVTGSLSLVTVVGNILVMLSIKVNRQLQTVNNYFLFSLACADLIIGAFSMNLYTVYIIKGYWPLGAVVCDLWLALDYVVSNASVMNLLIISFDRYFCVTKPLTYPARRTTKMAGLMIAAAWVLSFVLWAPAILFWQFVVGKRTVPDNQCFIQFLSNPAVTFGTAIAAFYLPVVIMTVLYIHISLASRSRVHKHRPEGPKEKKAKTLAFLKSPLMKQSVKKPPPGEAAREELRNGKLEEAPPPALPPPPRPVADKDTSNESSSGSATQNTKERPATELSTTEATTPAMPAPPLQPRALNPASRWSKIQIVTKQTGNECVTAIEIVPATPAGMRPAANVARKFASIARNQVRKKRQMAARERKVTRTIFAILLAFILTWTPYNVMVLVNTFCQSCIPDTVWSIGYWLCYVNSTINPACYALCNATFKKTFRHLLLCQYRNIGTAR
The experiment in a line: Alphascreen Surefire phospho-ERK1/2 functional assay, M4. The format is cell-based. The conditions noted are these: for EC50: CHO cells stably expressing human M4, phospho-ERK1/2, * = variable results, read-out: pEC50 M4 (converted); for Emax: CHO.
Description: CHO cells stably expressing the human muscarinic M1, M2, M3 or M4 receptor were plated (25K/well) onto 96-well tissue culture plates in MEM-alpha+10% dialysed FBS. Once adhered, cells were serum-starved overnight. Agonist stimulation was performed by the addition of 5 μL agonist to the cells for 5 min (37° C.). Media was removed and 50 μL of lysis buffer added. After 15 min, a 4 μL sample was transferred to 384-well plate and 7 μL of detection mixture added. Plates were incubated for 2 h with gentle agitation in the dark and then read on a PHERAstar plate reader.
pEC50 and Emax figures were calculated from the resulting data for each receptor subtype.

The mark [3] stands for this setting: read-out: % Emax cf. ACh, M1, CHO cells stably expressing human M1, relative to ACh.
The mark [4] stands for this setting: read-out: % Emax cf. ACh, M4, CHO cells stably expressing human M4, relative to ACh.

Consider `CCOC(=O)N1CCC2(CC(N3CCC(N4C(=O)CC[C@@H]4C)CC3)C2)C1` (single isomer, unassigned) [2-115 Isomer 2], for which the EC50 in test [1] was 200 nM; in test [2] it was 25.1 nM. Besides, the Emax in test [1] (setting [3]) worked out at 68%; in test [2] (setting [4]), 78%.

Turning to `CCCn1nccc1C1CCN(C2CC3(CCN(C(=O)OC)C3)C2)CC1` (single isomer, unassigned) [1-48 Isomer 2, methyl 2-[4-(1-propyl-1H-pyrazol-5-yl)piperidin-1-yl]-6-azaspiro[3.4]octane-6-carboxylate], the EC50 was over 20000 nM in test [1] and 631 nM in test [2]. Besides, the values for the Emax in test [1] (setting [3]) and in test [2] (setting [4]) were 63% and 68%, respectively.

With `CCOC(=O)N1CCC2(CC(N3CCC(N4C(=O)OC[C@H]4C)CC3)C2)C1` (single isomer, unassigned) [2-118 Isomer 2], the EC50 is over 20000 nM in test [1] and 126 nM in test [2]. The Emax in test [1] (setting [3]) stood at 33%; in test [2] (setting [4]), 84%.

With `CCOC(=O)N1CCC2(CC(N3CCC(N4CCCC[C@@H]4C(=O)NC)CC3)C2)C1` (single isomer, unassigned) [4-16 Isomer 2], the EC50 in test [1] was 1000 nM; in test [2] it was 158 nM. Further, the Emax in test [1] (setting [3]) was 94%; in test [2] (setting [4]), 105%.

As for `CCOC(=O)N1CCC2(CC(N3CCC(O)(c4ncc[nH]4)CC3)C2)C1` (single isomer, unassigned) [1-37 Isomer 2, ethyl 2-[4-hydroxy-4-(1 H-imidazol-2-yl)piperidin-1-yl]-6-azaspiro[3.4]octane-6-carboxylate], the EC50 in test [1] was 2510 nM; in test [2], 501 nM. For the same compound, the Emax is 78% in test [1] (read-out: % Emax cf. ACh, M1) and 126% in test [2] (read-out: % Emax cf. ACh, M4).

Consider `CCOC(=O)N1CCC2(CC(N3CCC(c4nnn[nH]4)CC3)C2)C1` (single isomer, unassigned) [1-31 Isomer 2, ethyl 2-[4-(1H-tetrazol-5-yl)piperidin-1-yl]-6-azaspiro[3.4]octane-6-carboxylate], for which the EC50 in test [1] was 2510 nM; in test [2] it was 100 nM. Moreover, the Emax in test [1] (setting [3]) worked out at 34%; in test [2] (setting [4]) it was 40%.

As to `CCOC(=O)N1CCC2(CC(N3CCC([C@@H]4CCCN4CCOC)CC3)C2)C1` (single isomer, unassigned) [2-71 Isomer 2], the values for the EC50 in test [1] and in test [2] were 5010 nM and 126 nM, respectively. In addition, the Emax in test [1] (setting [3]) came to 39%; in test [2] (setting [4]), 56%.

For the compound `CCOC(=O)N1CCC2(CC(N3CCC(N4C(=O)OC[C@H]4CC)CC3)C2)C1` (single isomer, unassigned) [2-119 Isomer 2], the EC50 in test [1] is 2510 nM; in test [2], 126 nM. Also, the Emax in test [1] (setting [3]) was determined as 85%; in test [2] (setting [4]) it was 84%.

For the compound `CCOC(=O)N1CCC2(CC(N3CCC(N4CC[C@H](F)C4)CC3)C2)C1` (single isomer, unassigned) [2-99 Isomer 2], the EC50 in test [1] was over 20000 nM; in test [2], 158 nM. In addition, the results for the Emax in test [1] (setting [3]) and in test [2] (setting [4]) were 18% and 54%, respectively.

Turning to `CCOC(=O)N1CCC2(CC(N3CCC(N4CCCC4c4ccon4)CC3)C2)C1` (single isomer, unassigned) [2-127 Isomer 2, ethyl 2-{4-[2-(1,2-oxazol-3-yl)pyrrolidin-1-yl]piperidin-1-yl}-6-azaspiro[3.4]octane-6-carboxylate], the EC50 in test [1] is over 20000 nM; in test [2], 10 nM. Besides, the Emax in test [1] (setting [3]) amounted to 11%; in test [2] (setting [4]) it was 72%.

Regarding `[2H]C([2H])([2H])COC(=O)N1CCC2(CC(N3CCC(n4cccn4)CC3)C2)C1` (single isomer, unassigned) [1-69 Isomer 2, (2,2,2-^2H3)ethyl 2-[4-(1H-pyrazol-1-yl)piperidin-1-yl]-6-azaspiro[3.4]octane-6-carboxylate], the results for the EC50 in test [1] and in test [2] were 79.4 nM and 5.01 nM, respectively. Moreover, the Emax in test [1] (setting [3]) was determined as 99%; in test [2] (setting [4]) it was 104%.

As for `CCOC(=O)N1CCC2(CC(N3CCC(c4nc(C)no4)CC3)C2)C1` (single isomer, unassigned) [1-29 Isomer 2, ethyl 2-[4-(3-methyl-1,2,4-oxadiazol-5-yl)piperidin-1-yl]-6-azaspiro[3.4]octane-6-carboxylate], the EC50 in test [1] is 794 nM; in test [2], 126 nM. Also, the Emax in test [1] (setting [3]) amounted to 44%; in test [2] (setting [4]), 36%.

`CCOC(=O)N1CCC2(CC(N3CCC(N4C(=O)OC[C@@H]4CC)CC3)C2)C1` (single isomer, unassigned) [2-122 Isomer 2]: the EC50 in test [1] was 1000 nM; in test [2], 158 nM. For the same compound, the values for the Emax in test [1] (setting [3]) and in test [2] (setting [4]) were 59% and 60%, respectively.

With `CCOC(=O)N1CCC2(CC(N3CCC(N4CCC[C@@H]4c4cccs4)CC3)C2)C1` (single isomer, unassigned) [2-131 Isomer 2], the EC50 in test [1] is 501 nM; in test [2], 158 nM. Also, the values for the Emax in test [1] (setting [3]) and in test [2] (setting [4]) were 61% and 108%, respectively.

In the case of `CCOC(=O)N1CCC2(CC(N3CCC(N4C[C@H](F)C[C@@H]4CO)CC3)C2)C1` (single isomer, unassigned) [2-136 Isomer 2], the EC50 in test [1] is 631 nM; in test [2] it was 12.6 nM.

For `CCOC(=O)N1CCC2(CC(N3CCC(c4nnn(CC)n4)CC3)C2)C1` (single isomer, unassigned) [1-66 Isomer 2, ethyl 2-[4-(2-ethyl-2H-tetrazol-5-yl)piperidin-1-yl]-6-azaspiro[3.4]octane-6-carboxylate], the figures for the EC50 in test [1] and in test [2] were over 20000 nM and 251 nM, respectively. In addition, the results for the Emax in test [1] (setting [3]) and in test [2] (setting [4]) were 14% and 32%, respectively.

As for `CCOC(=O)N1CCC2(CC(N3CCC(c4cnc(OC)c(C)c4)CC3)C2)C1` (single isomer, unassigned) [3-7 Isomer 2, ethyl 2-[4-(6-methoxy-5-methylpyridin-3-yl)piperidin-1-yl]-6-azaspiro[3.4]octane-6-carboxylate], the EC50 in test [1] is over 20000 nM; in test [2] it was 100 nM. The Emax in test [1] (setting [3]) was found to be 40%; in test [2] (setting [4]) it was 39%.

On to `CCOC(=O)N1CCC2(CC(N3CCC(c4nnco4)CC3)C2)C1` (single isomer, unassigned) [1-28 Isomer 2, ethyl 2-[4-(1,3,4-oxadiazol-2-yl)piperidin-1-yl]-6-azaspiro[3.4]octane-6-carboxylate], for which the EC50 is 2000 nM in test [1] and 501 nM in test [2]. Also, the results for the Emax in test [1] (setting [3]) and in test [2] (setting [4]) were 57% and 60%, respectively.

With `CCOC(=O)N1CCC2(CC(N3CCC(N4C(=O)CC[C@H]4C)CC3)C2)C1` (single isomer, unassigned) [2-113 Isomer 2], the EC50 in test [1] was 126 nM; in test [2], 15.8 nM. Besides, the maximum response (Emax) in test [1] (setting [3]) turned out to be 100%; in test [2] (setting [4]), 113%.

`CCOC(=O)N1CCC2(CC(N3CCC(O)(c4nccn4C)CC3)C2)C1` (single isomer, unassigned) [1-39 Isomer 2, ethyl 2-[4-hydroxy-4-(1-methyl-1H-imidazol-2-yl)piperidin-1-yl]-6-azaspiro[3.4]octane-6-carboxylate]: the EC50 was 1000 nM in test [1] and 398 nM in test [2]. In addition, the Emax came out at 49% in test [1] (read-out: % Emax cf. ACh, M1) and 97% in test [2] (read-out: % Emax cf. ACh, M4).
